Measured values: ChEMBL document CHEMBL4321786, “Discovery of Small Molecule Renal Outer Medullary Potassium (ROMK) Channel Inhibitors: A Brief History of Medicinal Chemistry Approaches To Develop Novel Diuretic Therapeutics” (J Med Chem, 2019)

Assays:
[1] = biological target: T1, ATP-sensitive inward rectifier potassium channel 1 (Rattus norvegicus, UniProt P35560); assay: Inhibition of rat ROMK1 expressed in HEK293 cells by Tl+ flux assay; assay type: cell-based
T1 sequence (P35560 whole entry): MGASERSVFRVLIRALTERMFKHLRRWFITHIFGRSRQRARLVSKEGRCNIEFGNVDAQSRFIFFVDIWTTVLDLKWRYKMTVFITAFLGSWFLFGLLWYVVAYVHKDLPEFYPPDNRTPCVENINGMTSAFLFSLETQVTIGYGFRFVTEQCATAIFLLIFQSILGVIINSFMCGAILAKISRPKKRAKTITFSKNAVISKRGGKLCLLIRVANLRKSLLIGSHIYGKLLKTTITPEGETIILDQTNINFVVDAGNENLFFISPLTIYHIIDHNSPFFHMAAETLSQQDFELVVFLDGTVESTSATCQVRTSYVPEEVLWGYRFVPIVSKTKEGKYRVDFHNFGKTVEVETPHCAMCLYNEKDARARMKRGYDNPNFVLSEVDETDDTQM

[2] = biological target: Voltage-gated inwardly rectifying potassium channel KCNH2 (Homo sapiens, UniProt Q12809); assay: Inhibition of human ERG
Voltage-gated inwardly rectifying potassium channel KCNH2, sequence (Q12809 whole entry): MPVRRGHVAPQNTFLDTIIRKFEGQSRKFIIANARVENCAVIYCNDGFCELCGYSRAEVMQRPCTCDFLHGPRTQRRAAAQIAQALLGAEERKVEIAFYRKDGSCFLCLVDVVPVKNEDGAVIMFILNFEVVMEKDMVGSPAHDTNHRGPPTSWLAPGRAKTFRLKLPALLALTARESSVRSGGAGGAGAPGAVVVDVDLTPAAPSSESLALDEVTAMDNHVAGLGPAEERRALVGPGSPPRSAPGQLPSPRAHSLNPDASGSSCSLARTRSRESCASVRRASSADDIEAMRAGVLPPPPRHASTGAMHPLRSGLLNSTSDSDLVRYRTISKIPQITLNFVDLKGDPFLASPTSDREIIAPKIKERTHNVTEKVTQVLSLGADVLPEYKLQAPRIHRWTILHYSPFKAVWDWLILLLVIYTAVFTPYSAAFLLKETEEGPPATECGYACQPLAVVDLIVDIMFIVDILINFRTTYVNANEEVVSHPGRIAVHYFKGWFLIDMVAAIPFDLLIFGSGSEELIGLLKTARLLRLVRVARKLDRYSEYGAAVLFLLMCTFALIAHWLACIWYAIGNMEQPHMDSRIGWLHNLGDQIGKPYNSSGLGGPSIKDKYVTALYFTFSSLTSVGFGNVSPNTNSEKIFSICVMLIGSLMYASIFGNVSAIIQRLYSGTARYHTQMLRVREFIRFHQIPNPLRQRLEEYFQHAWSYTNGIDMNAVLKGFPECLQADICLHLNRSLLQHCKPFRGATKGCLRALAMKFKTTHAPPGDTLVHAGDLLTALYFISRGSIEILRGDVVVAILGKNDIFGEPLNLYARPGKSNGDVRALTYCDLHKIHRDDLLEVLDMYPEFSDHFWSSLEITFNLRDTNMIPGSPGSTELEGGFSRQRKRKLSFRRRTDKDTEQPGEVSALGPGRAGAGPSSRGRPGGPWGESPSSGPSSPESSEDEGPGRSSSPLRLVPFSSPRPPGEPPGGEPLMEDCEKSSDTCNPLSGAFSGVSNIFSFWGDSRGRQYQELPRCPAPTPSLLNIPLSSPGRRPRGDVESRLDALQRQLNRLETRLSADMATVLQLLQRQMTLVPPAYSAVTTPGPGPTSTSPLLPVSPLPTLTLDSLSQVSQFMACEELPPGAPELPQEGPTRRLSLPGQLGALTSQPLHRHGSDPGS

[3] = biological target: T2, ATP-sensitive inward rectifier potassium channel 1 (Homo sapiens, UniProt P48048); assay: Inhibition of human ROMK1 expressed in HEK293 cells by Tl+ flux assay; assay type: cell-based
T2 sequence (P48048 whole entry): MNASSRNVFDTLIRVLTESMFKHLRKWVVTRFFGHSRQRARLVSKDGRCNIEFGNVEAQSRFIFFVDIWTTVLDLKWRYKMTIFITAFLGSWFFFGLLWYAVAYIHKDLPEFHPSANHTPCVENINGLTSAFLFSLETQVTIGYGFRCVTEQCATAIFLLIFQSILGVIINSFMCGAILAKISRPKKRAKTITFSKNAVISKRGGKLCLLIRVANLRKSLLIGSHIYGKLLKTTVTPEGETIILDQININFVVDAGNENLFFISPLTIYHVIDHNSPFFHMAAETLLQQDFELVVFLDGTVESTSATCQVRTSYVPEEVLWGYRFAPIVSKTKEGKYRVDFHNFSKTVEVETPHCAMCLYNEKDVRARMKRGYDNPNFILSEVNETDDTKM

[4] = biological target: T2, ATP-sensitive inward rectifier potassium channel 1; assay: Inhibition of human ROMK1 expressed in CHO cells by Tl+ flux assay; assay type: cell-based
[5] = biological target: T3, D(4) dopamine receptor (Homo sapiens) (UniProt P21917); assay: Inhibition of DRD4 (unknown origin) at 10 uM by radioligand displacement assay relative to control
T3 sequence (whole entry): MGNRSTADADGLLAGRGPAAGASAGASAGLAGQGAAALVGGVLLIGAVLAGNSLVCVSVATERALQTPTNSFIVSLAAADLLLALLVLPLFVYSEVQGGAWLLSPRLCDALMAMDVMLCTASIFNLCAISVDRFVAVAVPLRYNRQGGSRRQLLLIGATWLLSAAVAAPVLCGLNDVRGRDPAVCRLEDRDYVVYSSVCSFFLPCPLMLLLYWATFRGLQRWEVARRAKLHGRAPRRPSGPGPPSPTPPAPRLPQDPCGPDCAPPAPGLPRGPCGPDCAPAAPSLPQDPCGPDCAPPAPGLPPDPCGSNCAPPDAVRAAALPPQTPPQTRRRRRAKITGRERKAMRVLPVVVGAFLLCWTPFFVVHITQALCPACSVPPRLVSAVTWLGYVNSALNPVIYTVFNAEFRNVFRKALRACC

HEK293 [6] = assay: Inhibition of hamster SUR1/mouse Kir6.2 expressed in HEK293 cells at 50 uM by patch clamp electrophysiology assay relative to control; assay type: cell-based
[7] = biological target: Sodium-dependent dopamine transporter (Homo sapiens) (UniProt Q01959); assay: Inhibition of dopamine transporter (unknown origin) at 10 uM by radioligand displacement assay relative to control
Sodium-dependent dopamine transporter (Homo sapiens), sequence (Q01959 whole entry): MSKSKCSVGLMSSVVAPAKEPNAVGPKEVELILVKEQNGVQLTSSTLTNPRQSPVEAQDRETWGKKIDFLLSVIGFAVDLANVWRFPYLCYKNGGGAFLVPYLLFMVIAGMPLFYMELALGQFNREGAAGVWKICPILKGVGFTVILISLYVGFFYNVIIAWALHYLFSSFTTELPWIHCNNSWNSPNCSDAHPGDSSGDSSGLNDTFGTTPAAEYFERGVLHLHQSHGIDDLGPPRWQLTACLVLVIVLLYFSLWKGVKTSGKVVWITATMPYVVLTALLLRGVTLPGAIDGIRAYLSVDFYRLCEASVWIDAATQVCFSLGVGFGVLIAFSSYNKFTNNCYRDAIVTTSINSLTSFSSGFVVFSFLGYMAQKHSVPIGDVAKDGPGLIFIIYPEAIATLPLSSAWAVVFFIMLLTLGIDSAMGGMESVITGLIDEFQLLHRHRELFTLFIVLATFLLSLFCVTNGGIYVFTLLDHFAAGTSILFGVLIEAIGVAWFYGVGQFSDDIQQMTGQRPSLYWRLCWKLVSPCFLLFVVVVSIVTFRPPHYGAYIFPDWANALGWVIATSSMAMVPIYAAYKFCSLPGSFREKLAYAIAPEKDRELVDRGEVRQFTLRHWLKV

Homo sapiens = organism: Homo sapiens; assay: Inhibition of GABA receptor (unknown origin) at 10 uM by radioligand displacement assay relative to control
[8] = Protein binding in rat plasma; assay type: ADME, cell-free; details: read-out: PPB (converted)
[9] = Stability in human liver microsomes assessed as parent compound remaining level; assay type: ADME, Microsome
[10] = Stability in rat liver microsomes assessed as parent compound remaining level; assay type: ADME, Microsome
[11] = Inhibition of GABA receptor (unknown origin) by radioligand displacement assay; parameters: species or system Homo sapiens
HEK293 [12] = assay: Inhibition of hamster SUR1/mouse Kir6.2 expressed in HEK293 cells at 10 uM by patch clamp electrophysiology assay relative to control; assay type: cell-based
[13] = Protein binding in human plasma; assay type: ADME, cell-free; details: read-out: PPB (converted)
[14] = biological target: Sodium-dependent noradrenaline transporter (Homo sapiens) (UniProt P23975); assay: Inhibition of norepinephrine transporter (unknown origin) at 10 uM by radioligand displacement assay relative to control
Sodium-dependent noradrenaline transporter (Homo sapiens), sequence (P23975 whole entry): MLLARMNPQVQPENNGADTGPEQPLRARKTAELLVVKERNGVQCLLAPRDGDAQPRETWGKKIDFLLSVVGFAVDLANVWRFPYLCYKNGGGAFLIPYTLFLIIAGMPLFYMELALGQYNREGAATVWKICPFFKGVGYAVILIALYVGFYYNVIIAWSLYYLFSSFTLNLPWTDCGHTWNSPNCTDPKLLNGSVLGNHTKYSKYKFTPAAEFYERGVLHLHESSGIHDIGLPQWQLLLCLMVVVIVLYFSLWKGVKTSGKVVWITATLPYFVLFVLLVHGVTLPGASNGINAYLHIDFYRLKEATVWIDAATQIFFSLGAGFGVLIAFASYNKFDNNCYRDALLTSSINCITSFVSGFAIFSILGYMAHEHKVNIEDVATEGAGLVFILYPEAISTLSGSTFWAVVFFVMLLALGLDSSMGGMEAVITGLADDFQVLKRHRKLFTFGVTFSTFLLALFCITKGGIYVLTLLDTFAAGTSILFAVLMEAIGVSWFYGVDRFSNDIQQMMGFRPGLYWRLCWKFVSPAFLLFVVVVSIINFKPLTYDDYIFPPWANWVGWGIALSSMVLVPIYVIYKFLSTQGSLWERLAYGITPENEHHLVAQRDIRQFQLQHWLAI

[15] = biological target: T4, Inward rectifier potassium channel 13 (Homo sapiens) (UniProt O60928); assay: Inhibition human Kir7.1 expressed in HEK293 cells at 10 uM by whole cell patch clamp assay relative to control; assay type: cell-based
T4 sequence (whole entry): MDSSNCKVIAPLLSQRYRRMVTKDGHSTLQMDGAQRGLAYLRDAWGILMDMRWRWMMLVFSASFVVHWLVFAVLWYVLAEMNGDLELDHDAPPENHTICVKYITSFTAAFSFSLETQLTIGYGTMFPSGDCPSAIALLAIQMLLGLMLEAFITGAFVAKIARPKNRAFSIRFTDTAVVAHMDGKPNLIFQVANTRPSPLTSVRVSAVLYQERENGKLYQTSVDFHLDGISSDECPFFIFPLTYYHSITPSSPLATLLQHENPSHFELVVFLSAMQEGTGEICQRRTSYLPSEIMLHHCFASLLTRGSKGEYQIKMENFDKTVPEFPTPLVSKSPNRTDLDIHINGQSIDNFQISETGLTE

`CC1=C(N2CCC3(CCN(C[C@@H](O)c4ccc5c(c4Cl)Cn4nnnc4-5)CC3)C2=O)COC1=O` showed an IC50 [1] of 0.009 µM.

Compound `O=C1OCc2cc(C3CN4CCN(C(=O)Cc5ccc(-n6cnnn6)cc5)CC4CO3)ccc21` (stereo not given) has an IC50 [2] of 21.1 to 59.4 µM and an IC50 [3] of 0.065 to 0.105 µM.

`O=C1OCCc2cc([C@@H]3CN4CCN(C(=O)Cc5ccc(-n6cnnn6)cc5)C[C@H]4CO3)ccc21` gave an IC50 [2] of 75.9 µM and an IC50 [3] of 0.057 µM.

In the case of `Cc1cc(-c2ncc(CNC[C@H](O)c3ccc4c(c3C)COC4=O)s2)ccc1C#N`, the IC50 [4] is reported as 0.0066 µM.

Work on `Cc1c(C#N)cccc1[C@@H]1CN2CCN(C(=O)Cc3ccc(-n4cnnn4)cc3)C[C@H]2CO1` yielded an IC50 [2] of 14.8 µM and an IC50 [3] of 0.06 µM.

Work on `CC1=C(N2CCC3(CCN(C[C@H](O)c4ccc5c(c4)Cn4nnnc4-5)C[C@H]3F)C2=O)COC1=O` (stereo not given in full) yielded an IC50 [1] of 0.043 µM.

Work on `Cc1c([C@@H]2CN(Cc3ccc(-n4cc(C#N)cn4)cn3)CCN2)ccc2c1COC2=O` yielded an IC50 [4] of 0.0088 µM.

Compound `O=[N+]([O-])c1ccc2[nH]c(CCCc3nc4cc([N+](=O)[O-])ccc4[nH]3)nc2c1` has an IC50 [1] of 8 µM.

In the case of `C[C@H]1CC2(CCN(C[C@@H](O)c3ccc4c(ccc5nnnn54)c3)CC2)C(=O)N1C1=CC(=O)OC1`, the IC50 [1] is reported as 0.01 µM.

With `O=[N+]([O-])c1ccc2nc(COCc3nc4ccc([N+](=O)[O-])cc4[nH]3)[nH]c2c1` the inhibition [5] was > 50%, the inhibition (HEK293 [6]) was 28% and the inhibition [7] was > 50%. For the same compound, the inhibition (Homo sapiens) was > 50%, the fraction unbound [8] was 0.0161 and the Stability [9] was 80%. It also gave a Stability [10] of 60%, an IC50 [11] of 6.2 µM and an IC50 [1] of 0.24 µM. For the same compound, the inhibition (HEK293 [12]) was 17%, the fraction unbound [13] was 0.0086 and the inhibition [14] was > 50%.

`O=[N+]([O-])c1ccc(CN2CCOCCOCCN(Cc3ccc([N+](=O)[O-])cc3)CCOCC2)cc1` showed an inhibition [15] of 69% and an IC50 [1] of 0.294 µM.

Compound `CCOc1cc(-n2cc(CNC[C@H](O)c3ccc4c(c3C)COC4=O)cn2)ccc1C#N` has an IC50 [4] of 0.0062 µM.

`CC1=C(N2CCC3(CCN(CCc4ccc5c(c4)Cn4nnnc4-5)CC3)C2=O)COC1=O` showed an IC50 [1] of 0.006 µM.

Compound `Cc1c(C(O)CN2CCc3nc(-n4ncc5c(C#N)cccc54)ncc3C2)ccc2c1COC2=O` (stereo not given) has an IC50 [4] of 0.038 µM.

`CC1=C(N2CCC3(CCN(CC(CO)c4ccc5c(ccc6nnnn65)c4)CC3)C2=O)COC1=O` (stereo not given) gave an IC50 [1] of 0.018 µM.
